# Results: ChEMBL document CHEMBL1201862, “PubChem BioAssay data set” (2004)
# The source made the active and inactive calls.
# How the values were obtained:
# MDA-MB-435 = test: cells; format: functional, cell-based; settings: Homo sapiens
# cells = format: functional, cell-based; settings: PPC-1
# [1] = molecular target: NACHT, LRR and PYD domains-containing protein 3 (Homo sapiens, UniProt Q96P20); test: NALP3 inhibitors in yeast, dose response, luminescent (AID 488799); format: functional
# [2] = Luminescence Cell-Based Dose Response to Identify Activators of Luciferase Translation or Activity in H4-C Neuroglioblastoma Cells. [Related pubchem assays: 1829 (Project Summary), 1814 (Primary HTS)]; format: functional
# H4 = test: Luminescence Cell-Based Dose Response HTS to Identify Activators of 5'UTR Stem-Loop Driven Prion Protein mRNA Translation in H4 Neuroglioblastoma Cells. [Related pubchem assays: 1829 (Project Summary), 1814 (Primary HTS)]; format: functional; settings: Homo sapiens
# [3] = Luminescence Cell-Based Dose Response to Identify Activators of 5'UTR Stem-Loop Driven Prion Protein mRNA Translation in H4-C Neuroglioblastoma Cells. [Related pubchem assays: 1829 (Project Summary), 1814 (Primary HTS)]; format: functional
# [4] = Luminescence Cell-Based Dose Response HTS to Identify Activators of Luciferase Translation or Activity in H4 […] Cells. [Related pubchem assays: 1829 (Project Summary), 1814 (Primary HTS)]; format: functional
# [5] = Luminescence Cell-Based Dose Confirmation to Identify Activators of 5'UTR Stem-Loop Driven Alpha-Synuclein mRNA Translation in H4 Neuroglioblastoma Cells. [Related pubchem assays: 1829 (Project Summary), 1814 (Primary HTS)]; format: functional
# [6] = nonselective inhibitors of cellular cAMP signaling, dose response, counter-screen for MC4R biased antagonist project, cell-based, TR-FRET cAMP detection (AID 602305); format: functional;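 also: U2OS cells stimulated with forskolin near its EC80 as the cAMP inducer; potency is for inhibition of forskolin-stimulated cAMP signaling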
# X-box-binding protein 1 = X-box-binding protein 1 (Homo sapiens, UniProt P17861); format: functional, Cricetulus griseus;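 also: confirmatory dose-response counter-screen serving a CHOP assay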
# Melanocortin receptor 4 = Melanocortin receptor 4 (Homo sapiens, UniProt P32245); test: MC4R antagonist potency on cAMP, dose response, cell-based, TR-FRET, biased antagonists (AID 602298); format: functional;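 also: antagonist potency against agonist-stimulated cAMP production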
# [7] = molecular target: T1, High affinity choline transporter 1 (Homo sapiens, UniProt Q9GZV3); test: CHT inhibitors, dose response, cell-based, 5-point CRC, membrane potential dye (AID 504840); format: functional
# T1 sequence (Q9GZV3 whole entry): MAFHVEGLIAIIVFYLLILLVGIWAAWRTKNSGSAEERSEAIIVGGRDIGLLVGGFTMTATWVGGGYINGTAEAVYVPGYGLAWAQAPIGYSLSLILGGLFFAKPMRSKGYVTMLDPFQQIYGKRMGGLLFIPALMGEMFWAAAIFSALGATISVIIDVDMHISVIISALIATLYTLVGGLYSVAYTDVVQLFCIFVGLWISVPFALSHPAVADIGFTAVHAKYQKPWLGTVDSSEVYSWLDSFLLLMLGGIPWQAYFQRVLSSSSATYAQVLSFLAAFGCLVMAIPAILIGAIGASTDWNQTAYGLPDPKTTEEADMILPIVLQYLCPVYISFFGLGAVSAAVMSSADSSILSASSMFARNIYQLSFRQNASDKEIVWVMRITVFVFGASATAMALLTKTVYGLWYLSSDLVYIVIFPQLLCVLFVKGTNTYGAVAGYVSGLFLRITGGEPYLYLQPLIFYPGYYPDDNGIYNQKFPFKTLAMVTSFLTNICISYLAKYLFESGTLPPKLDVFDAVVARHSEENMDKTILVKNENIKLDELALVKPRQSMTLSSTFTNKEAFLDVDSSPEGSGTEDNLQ
# [8] = Luminescence Cell-Based Dose Response HTS to Identify Activators of 5'UTR Stem-Loop Driven Prion Protein mRNA Translation in H4-C Neuroglioblastoma Cells. [Related pubchem assays: 1829 (Project Summary), 1814 (Primary HTS)]; format: functional
# [9] = Luminescence Cell-Based Dose Confirmation HTS to Identify Activators of 5'UTR Stem-Loop Driven Alpha-Synuclein mRNA Translation in H4 Neuroglioblastoma Cells. [Related pubchem assays: 1829 (Project Summary), 1814 (Primary HTS)]; format: functional
# [10] = Luminescence Cell-Based Dose Response HTS to Identify Activators of Luciferase Translation or Activity in H4-C Neuroglioblastoma Cells. [Related pubchem assays: 1829 (Project Summary), 1814 (Primary HTS)]; format: functional
# [11] = Luminescence Cell-Based Dose Retest to Confirm Activators of 5'UTR Stem-Loop Driven Alpha-Synuclein mRNA Translation in H4 Neuroglioblastoma Cells. [Related pubchem assays (depositor defined):AID1813, AID1829]; format: functional
# CAAX prenyl protease 2 = CAAX prenyl protease 2 (Homo sapiens, UniProt Q9Y256); test: human Rce1 protease inhibitors, dose response, biochemical, yeast membranes, quenched-peptide fluorescence, cherry-pick (AID 588849)
# Trypsin = Trypsin (Sus scrofa, UniProt P00761); test: porcine trypsin inhibitors, dose response, selectivity assay for Rce1 protease inhibitor project, biochemical, quenched peptide fluorescence, cherry-pick (AID 488789)
# [12] = inhibition of K1F phage lysis, E. coli UTI89, bacterial capsule biogenesis inhibitors, alamar blue (AID 488966); format: functional
# [13] = molecular target: T2, Short transient receptor potential channel 4 (Mus musculus, UniProt Q9QUQ5); test: mouse TRPC4 channel inhibitors, dose response, cell-based, HEK293 TRPC4/mu-opioid, Fluo-4 calcium (AID 434942); format: functional;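 also: potency of inhibitors blocking the TRPC4 calcium response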
# T2 sequence (Q9QUQ5 whole entry): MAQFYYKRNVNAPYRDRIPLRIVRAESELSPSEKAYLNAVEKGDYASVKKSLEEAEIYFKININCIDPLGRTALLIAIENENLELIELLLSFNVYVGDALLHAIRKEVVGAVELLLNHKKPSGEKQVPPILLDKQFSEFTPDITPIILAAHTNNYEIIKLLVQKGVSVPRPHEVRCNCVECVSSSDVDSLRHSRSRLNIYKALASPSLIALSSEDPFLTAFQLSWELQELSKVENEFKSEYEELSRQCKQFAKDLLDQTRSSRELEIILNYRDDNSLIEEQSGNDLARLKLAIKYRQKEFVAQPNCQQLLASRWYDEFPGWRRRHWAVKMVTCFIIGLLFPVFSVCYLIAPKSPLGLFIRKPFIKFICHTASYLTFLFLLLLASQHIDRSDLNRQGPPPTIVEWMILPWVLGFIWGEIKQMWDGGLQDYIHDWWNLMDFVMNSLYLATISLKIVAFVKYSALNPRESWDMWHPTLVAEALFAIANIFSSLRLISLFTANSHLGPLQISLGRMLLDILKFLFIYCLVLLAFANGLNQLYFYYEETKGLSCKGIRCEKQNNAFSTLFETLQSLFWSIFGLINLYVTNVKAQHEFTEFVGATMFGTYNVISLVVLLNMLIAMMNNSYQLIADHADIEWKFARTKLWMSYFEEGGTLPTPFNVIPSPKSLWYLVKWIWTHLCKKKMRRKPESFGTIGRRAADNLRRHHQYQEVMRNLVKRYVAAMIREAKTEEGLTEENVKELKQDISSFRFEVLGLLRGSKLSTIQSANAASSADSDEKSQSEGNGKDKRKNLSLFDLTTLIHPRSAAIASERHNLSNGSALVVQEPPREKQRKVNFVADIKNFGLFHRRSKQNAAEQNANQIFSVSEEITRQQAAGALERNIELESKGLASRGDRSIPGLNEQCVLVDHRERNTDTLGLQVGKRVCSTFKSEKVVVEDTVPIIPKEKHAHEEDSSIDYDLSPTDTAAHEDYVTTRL
# [14] = Cytotoxicity screening for potential Inhibitors of Bacterial Capsule Biogenesis. [Related pubchem assays (depositor defined):AID488970]; format: functional
# [15] = molecular target: T3, Voltage-gated N-type calcium channel alpha-1B subunit/Amyloid beta A4 precursor protein-binding family A member 1 (Homo sapiens, UniProt Q00975+Q02410); test: disruptors of Mint-PDZ/N-type channel peptide interaction – biochemical, HTRF, SAR follow-up (AID 2489); format: functional
# [16] = molecular target: T3, Voltage-gated N-type calcium channel alpha-1B subunit/Amyloid beta A4 precursor protein-binding family A member 1; format: protein assay
# Cytochrome P450 2C9 = Cytochrome P450 2C9 (Homo sapiens, UniProt P11712)
# Cytochrome P450 2C19 = Cytochrome P450 2C19 (Homo sapiens, UniProt P33261); test: Cytochrome panel assay with activity outcomes. Panel member name: p450-cyp2c19 Compounds with AC50 equal or less than 10 uM are considered active; format: functional; settings: read-out: AC50
# [17] = molecular target: T3, Voltage-gated N-type calcium channel alpha-1B subunit/Amyloid beta A4 precursor protein-binding family A member 1; format: protein assay; remark: listed apart in the source
# Large T antigen = Large T antigen (Simian virus 40, UniProt P03070); format: functional, Betapolyomavirus macacae;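 also: Confirmatory-stage PubChem screen for compounds that inhibit SV40 T antigen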
# [18] = molecular target: T4, Mannose-6-phosphate isomerase (Homo sapiens, UniProt P34949); test: PMI enzyme inhibitors, confirmation, biochemical, fluorescence intensity (AID 1535)
# T4 sequence (P34949 whole entry): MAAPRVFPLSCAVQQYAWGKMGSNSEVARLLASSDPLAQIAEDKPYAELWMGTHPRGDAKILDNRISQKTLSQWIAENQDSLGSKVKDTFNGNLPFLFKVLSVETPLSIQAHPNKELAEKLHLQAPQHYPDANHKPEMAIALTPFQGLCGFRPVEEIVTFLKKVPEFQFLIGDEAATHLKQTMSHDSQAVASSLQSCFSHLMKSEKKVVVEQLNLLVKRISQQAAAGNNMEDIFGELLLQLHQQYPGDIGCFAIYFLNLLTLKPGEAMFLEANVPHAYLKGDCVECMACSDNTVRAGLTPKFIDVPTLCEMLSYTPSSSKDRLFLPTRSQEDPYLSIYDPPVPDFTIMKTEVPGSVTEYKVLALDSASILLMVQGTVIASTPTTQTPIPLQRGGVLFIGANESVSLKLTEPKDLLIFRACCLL
# [19] = molecular target: Alkaline phosphatase, placental type (Homo sapiens, UniProt P05187); test: PLAP enzyme inhibitors, confirmation, biochemical, luminescence (AID 1512); format: functional
# [20] = molecular target: T4, Mannose-6-phosphate isomerase; test: Confirmation of compounds inhibiting phosphomannose isomerase (PMI) via a fluorescence intensity assay using a high concentration of mannose 6-phosphate. [Related pubchem assays (depositor defined):AID1209, AID1220, AID1545, AID1553, AID1620]
# Salmon testes DNA = test: DNA intercalators displacing acridine orange, dose response, artefact control for KSHV LANA DNA-binding inhibitor project, biochemical, fluorescence polarization, cherry-picked samples, set 2 (AID 504727); design: species or system Salmonidae
# ORF 73 = ORF 73 (Human herpesvirus 8, UniProt O40947); test: inhibitors of C-LANA binding to LBS DNA, dose response, biochemical, fluorescence polarization, cherry-picked samples (AID 504725); design: species or system Human gammaherpesvirus 8;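 also: fluorescence polarization of a labeled DNA duplex reporting LANA DNA binding; potency is for inhibitors that block LANA binding to the DNA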
# Keap1/Nrf2 = Keap1/Nrf2 (Homo sapiens, UniProt Q14145); test: Keap1-Nrf2 protein-protein interaction inhibitors, dose response, biochemical, fluorescence polarization, cherry-picked samples (AID 588683)
# [21] = molecular target: T5, Kappa-type opioid receptor (Homo sapiens, UniProt P41145); test: SAR analysis of small molecule antagonists of the kappa opioid receptor via a luminescent beta-arrestin assay - Set 4. [Related pubchem assays (depositor defined):AID1777, AID1778, AID1785, AID1786, AID1966, AID2133, AID2136, AID2285]; format: functional
# [22] = molecular target: T5, Kappa-type opioid receptor; test: SAR analysis of Antagonists of the Kappa Opioid Receptor (KOR) using an Image-Based Assay - Set 4. [Related pubchem assays (depositor defined):AID1777, AID1785]; format: functional
# [23] = molecular target: Delta-type opioid receptor (Homo sapiens, UniProt P41143); test: SAR Analysis of Antagonists of the DOR Receptor using an Image-Based Assay - Set 3. [Related pubchem assays (depositor defined):AID1777, AID1785]; format: functional;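 also: U2OS cells expressing DOR1 and beta-arrestin GFP stimulated with 100 nM SNC80; imaging of GFP-tagged beta-arrestin moving into spots after receptor activation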
# Mu-type opioid receptor = Mu-type opioid receptor (Homo sapiens, UniProt P35372); test: SAR Analysis of Antagonists of the MOR Receptor using an Image-Based Assay - Set 3. [Related pubchem assays (depositor defined):AID1777, AID1785, AID1786, AID1966, AID2133, AID2136, AID2284, AID2285, AID2420]; format: functional
# T3 sequence (Q00975 whole entry): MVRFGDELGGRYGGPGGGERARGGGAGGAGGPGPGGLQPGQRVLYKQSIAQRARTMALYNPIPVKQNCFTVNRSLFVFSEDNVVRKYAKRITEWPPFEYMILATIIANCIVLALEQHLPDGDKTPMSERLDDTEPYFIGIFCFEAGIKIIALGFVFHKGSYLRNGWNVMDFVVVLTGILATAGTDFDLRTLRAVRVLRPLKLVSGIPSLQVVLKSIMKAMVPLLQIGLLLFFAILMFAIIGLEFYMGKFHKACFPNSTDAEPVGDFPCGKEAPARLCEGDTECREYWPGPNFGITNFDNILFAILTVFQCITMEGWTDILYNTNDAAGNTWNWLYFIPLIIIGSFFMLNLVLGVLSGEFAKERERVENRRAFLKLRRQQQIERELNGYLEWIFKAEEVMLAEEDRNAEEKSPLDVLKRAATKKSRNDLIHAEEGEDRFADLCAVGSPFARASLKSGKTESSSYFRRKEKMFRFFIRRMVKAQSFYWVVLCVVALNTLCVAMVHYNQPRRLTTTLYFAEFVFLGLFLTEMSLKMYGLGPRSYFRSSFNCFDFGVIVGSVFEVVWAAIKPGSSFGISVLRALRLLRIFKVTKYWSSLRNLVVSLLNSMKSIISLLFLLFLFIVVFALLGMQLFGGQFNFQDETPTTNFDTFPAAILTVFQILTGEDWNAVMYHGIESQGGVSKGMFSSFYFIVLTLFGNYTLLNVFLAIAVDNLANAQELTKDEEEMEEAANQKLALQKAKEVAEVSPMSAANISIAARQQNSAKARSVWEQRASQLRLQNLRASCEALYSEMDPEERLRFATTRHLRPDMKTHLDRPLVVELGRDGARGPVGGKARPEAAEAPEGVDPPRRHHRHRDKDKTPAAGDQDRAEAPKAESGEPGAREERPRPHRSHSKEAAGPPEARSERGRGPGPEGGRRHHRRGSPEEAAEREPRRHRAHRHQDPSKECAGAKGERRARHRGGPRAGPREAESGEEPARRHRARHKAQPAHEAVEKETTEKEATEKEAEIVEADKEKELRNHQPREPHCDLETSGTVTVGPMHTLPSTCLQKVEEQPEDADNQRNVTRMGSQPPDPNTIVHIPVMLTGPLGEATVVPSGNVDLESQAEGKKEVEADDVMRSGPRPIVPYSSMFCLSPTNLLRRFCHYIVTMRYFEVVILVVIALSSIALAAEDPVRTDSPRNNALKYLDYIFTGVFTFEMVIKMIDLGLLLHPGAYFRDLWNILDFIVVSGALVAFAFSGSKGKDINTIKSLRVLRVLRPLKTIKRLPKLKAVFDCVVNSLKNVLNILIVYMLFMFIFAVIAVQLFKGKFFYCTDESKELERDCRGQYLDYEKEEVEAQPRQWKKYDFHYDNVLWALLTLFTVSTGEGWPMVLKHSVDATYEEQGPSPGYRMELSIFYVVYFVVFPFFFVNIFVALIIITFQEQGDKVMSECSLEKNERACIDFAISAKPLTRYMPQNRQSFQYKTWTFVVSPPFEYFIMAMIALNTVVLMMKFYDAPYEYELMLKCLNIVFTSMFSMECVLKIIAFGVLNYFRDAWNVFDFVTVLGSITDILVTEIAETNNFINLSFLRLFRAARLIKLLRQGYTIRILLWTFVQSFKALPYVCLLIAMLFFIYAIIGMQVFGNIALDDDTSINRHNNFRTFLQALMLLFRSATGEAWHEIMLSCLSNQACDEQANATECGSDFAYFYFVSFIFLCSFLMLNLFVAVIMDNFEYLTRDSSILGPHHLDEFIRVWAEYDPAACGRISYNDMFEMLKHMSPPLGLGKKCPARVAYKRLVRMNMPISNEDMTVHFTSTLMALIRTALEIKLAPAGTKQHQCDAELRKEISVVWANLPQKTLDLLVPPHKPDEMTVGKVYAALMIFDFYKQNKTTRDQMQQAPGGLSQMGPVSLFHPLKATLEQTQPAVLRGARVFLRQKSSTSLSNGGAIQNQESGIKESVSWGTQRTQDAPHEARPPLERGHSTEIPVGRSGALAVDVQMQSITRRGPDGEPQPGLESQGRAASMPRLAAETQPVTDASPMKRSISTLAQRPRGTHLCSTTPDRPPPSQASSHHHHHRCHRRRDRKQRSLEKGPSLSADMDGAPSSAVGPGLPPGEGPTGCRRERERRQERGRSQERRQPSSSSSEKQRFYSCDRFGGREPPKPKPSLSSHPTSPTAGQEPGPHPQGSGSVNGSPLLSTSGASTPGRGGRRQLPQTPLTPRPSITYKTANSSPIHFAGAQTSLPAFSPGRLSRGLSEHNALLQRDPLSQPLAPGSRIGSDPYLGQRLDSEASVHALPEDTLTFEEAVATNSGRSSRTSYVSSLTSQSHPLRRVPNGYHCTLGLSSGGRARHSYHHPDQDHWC
# T3 sequence (Q02410 whole entry): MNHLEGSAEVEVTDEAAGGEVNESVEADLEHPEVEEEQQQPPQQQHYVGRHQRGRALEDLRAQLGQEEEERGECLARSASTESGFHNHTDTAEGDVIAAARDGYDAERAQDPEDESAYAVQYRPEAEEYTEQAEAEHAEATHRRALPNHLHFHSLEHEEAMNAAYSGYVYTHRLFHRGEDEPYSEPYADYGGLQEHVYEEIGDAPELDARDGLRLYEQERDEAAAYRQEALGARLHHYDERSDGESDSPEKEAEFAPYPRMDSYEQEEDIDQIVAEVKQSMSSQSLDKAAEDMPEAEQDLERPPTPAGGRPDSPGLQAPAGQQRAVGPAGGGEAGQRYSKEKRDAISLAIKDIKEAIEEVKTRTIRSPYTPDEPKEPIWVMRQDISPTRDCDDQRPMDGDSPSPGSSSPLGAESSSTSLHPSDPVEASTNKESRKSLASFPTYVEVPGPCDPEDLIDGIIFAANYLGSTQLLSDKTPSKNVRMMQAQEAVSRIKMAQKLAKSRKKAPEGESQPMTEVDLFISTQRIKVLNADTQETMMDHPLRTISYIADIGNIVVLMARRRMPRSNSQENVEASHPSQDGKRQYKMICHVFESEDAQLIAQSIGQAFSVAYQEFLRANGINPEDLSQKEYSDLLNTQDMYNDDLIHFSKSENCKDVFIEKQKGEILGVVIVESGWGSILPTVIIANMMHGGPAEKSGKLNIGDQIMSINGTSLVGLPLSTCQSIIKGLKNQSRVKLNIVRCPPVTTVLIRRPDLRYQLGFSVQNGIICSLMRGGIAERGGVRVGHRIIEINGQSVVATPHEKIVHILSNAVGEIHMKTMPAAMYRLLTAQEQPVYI
# T5 sequence (P41145 whole entry): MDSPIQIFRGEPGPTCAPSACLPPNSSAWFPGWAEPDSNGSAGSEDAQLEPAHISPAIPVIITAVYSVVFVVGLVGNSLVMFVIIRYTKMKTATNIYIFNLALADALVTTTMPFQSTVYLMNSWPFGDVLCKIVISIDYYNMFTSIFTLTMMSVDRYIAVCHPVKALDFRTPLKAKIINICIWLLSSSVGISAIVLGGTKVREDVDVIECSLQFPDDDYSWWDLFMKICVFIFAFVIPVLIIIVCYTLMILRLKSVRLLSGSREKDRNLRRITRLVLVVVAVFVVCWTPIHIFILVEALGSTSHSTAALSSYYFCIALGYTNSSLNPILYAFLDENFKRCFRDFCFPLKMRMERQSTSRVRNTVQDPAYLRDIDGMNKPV
# Sequence of Alkaline phosphatase, placental type (P05187 whole entry): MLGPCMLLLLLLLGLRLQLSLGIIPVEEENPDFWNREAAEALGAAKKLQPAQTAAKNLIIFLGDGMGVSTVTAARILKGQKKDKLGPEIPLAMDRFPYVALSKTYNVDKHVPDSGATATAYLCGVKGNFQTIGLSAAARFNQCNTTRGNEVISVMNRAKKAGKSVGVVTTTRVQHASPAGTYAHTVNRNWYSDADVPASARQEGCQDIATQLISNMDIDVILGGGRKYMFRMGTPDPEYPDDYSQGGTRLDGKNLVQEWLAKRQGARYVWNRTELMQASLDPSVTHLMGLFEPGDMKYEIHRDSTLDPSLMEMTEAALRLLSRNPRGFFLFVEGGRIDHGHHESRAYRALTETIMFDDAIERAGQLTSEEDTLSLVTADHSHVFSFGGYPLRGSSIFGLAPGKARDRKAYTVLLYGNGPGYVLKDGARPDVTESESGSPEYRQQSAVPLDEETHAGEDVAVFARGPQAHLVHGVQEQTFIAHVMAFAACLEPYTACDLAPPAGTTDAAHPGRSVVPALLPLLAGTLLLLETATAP
# Sequence of X-box-binding protein 1 (P17861 whole entry): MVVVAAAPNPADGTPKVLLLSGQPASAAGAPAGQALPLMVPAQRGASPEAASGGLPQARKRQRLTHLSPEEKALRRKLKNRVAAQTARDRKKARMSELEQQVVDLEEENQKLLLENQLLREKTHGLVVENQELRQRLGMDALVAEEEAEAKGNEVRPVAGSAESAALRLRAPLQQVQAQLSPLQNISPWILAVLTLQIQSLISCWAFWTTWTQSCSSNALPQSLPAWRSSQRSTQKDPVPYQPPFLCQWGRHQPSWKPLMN
# Sequence of Melanocortin receptor 4 (P32245 whole entry): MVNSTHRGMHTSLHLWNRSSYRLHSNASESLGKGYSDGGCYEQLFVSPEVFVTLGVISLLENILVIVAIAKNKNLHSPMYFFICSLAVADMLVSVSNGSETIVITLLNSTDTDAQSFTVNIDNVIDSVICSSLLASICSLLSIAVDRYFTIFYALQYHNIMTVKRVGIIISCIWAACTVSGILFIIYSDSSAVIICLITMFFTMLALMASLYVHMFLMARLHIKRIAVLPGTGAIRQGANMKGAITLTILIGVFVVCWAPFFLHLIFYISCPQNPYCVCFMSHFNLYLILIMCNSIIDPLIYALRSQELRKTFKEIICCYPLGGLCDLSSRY
# Sequence of Trypsin (P00761 whole entry): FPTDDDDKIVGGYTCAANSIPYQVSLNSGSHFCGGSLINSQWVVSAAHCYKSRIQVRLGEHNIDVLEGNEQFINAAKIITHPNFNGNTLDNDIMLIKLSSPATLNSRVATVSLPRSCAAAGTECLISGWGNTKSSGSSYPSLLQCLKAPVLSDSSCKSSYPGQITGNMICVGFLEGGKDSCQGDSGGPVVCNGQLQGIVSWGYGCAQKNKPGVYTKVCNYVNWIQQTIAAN
smiles,measurement,setting,value
CSc1nc(-c2ccccc2)nc(-c2ccccc2)n1,IC50,MDA-MB-435,> 10 µM (inactive)
same,IC50,cells,> 10 µM (inactive)
Nc1ccc(Oc2cc(N)cc(Oc3ccccc3)c2)cc1,IC50,[1],4.74 µM (active)
same,EC50,[2],> 12 µM (not active)
same,EC50,H4,20.4 µM (active)
same,EC50,[3],2.5 µM (active)
same,EC50,[4],< 0.1 µM (active)
same,EC50,[5],1.22 µM (active)
COc1cccc(C(=O)C(C#N)=C(SC)SC)c1,IC50,[6],> 64.6 µM (inactive)
same,Absolute IC50 (XBP1),X-box-binding protein 1,10 µM
same,IC50,Melanocortin receptor 4,> 64.6 µM (inactive)
same,IC50,[7],11.2 µM (active)
COc1cccc(Nc2nnc(SCc3nc4ccccc4s3)s2)c1,EC50,[4],46.8 µM (active)
same,EC50,[8],4.9 µM (active)
same,EC50,[9],27.4 µM (active)
same,EC50,[10],2.15 µM (active)
same,EC50,[11],1.31 µM (active)
Cc1cc(NC(=O)COC(=O)c2nccnc2N)n(-c2ccccc2)n1,AC50,CAAX prenyl protease 2,1.84 µM (active)
same,AC50,Trypsin,25.9 µM (active)
COc1cc(/C=C/C(=O)NC(=O)c2ccccc2O)ccc1OC(C)=O,IC50,[12],> 150 µM (active)
CCOc1ccc(-c2cc(NC(=O)c3c(F)cccc3F)c(C(=O)O)s2)cc1,EC50,[13],2.99 µM (active)
same,CC50,[14],66.7 µM (active)
Nc1ccc(-c2nc3ccc(N)c(Cl)c3[nH]2)cc1,IC50,[15],11.6 µM (active)
same,IC50,[16],9.64 µM (active)
same,AC50,Cytochrome P450 2C9,0.112 µM (inconclusive)
same,AC50,Cytochrome P450 2C19,6.31 µM (inconclusive)
same,IC50,[17],1.94 µM (active)
same,IC50,Large T antigen,7.64 µM (active)
CCN1C(=O)C2(NNc3ccccc3O2)c2ccccc21 (stereo not drawn),IC50,[18],> 100 µM (inactive)
same,IC50,[19],> 100 µM (inactive)
same,IC50,[20],> 100 µM (inactive)
Cc1oc2cc(O)ccc2c(=O)c1-c1nncn1-c1ccccc1,AC50,Salmon testes DNA,49.4 µM (active)
same,AC50,ORF 73,26.6 µM (active)
same,AC50,Keap1/Nrf2,43.4 µM (active)
Cc1ccc(S(=O)(=O)NCc2ccc(C(=O)NC3CCN(Cc4ccccc4)CC3)cc2)cc1,IC50,[21],> 20 µM (inactive)
same,IC50,[22],> 32 µM (inactive)
same,IC50,[23],> 32 µM (inactive)
same,IC50,Mu-type opioid receptor,> 32 µM (inactive)
